The values below are quoted from earlier work in US20160326157A1, “MONOBACTAMS AND METHODS OF THEIR SYNTHESIS AND USE” (PRESIDENT AND FELLOWS OF HARVARD COLLEGE, priority 2014, published 2016).

For data set [1] the following is noted: in vivo.
The subject of data set [2] is Enterobacteriaceae.
For data set [3], the system named is Gram-positive or anaerobic bacteria.

Regarding `C[C@H]1[C@H](NC(=O)/C(=N\OC(C)(C)C(=O)O)c2csc(N)n2)C(=O)N1S(=O)(=O)O` [Aztreonam], in data set [1], the “absorption from the gastrointestinal tract” value is reported as “not absorbed” and the route of excretion result is given as “renally excreted”. Moreover, in data set [2], the “concentration inhibiting most Enterobacteriaceae” value is “less than 0.5 g/mL”. Moreover, the “activity against Gram-positive or anaerobic bacteria” value in data set [3] is “inactive”.
